Test results published in patent US12180146B2, “Antihypertensive polyol compound and derivative thereof” (TAO PHARMACEUTICAL (SUZHOU) CO., LTD, priority 2020, dated 2024).

How the values were obtained:
[1] = system: spontaneously hypertensive rats (SHR); experiment: Antihypertensive activity test: blood pressure and heart rate of spontaneously hypertensive rats (SHR); assay type: in vivo, rat; conditions: 200 mg/kg
How it was run: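 Spontaneously hypertensive rats received compound at 200 mg/kg. SBP and heart rate were measured before and after dosing. A drop in SBP of ≥20 mmHg from baseline counted as effective, and heart-rate changes were tested by paired t-test (P<0.05).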

[2] = system: monocrotaline-induced pulmonary hypertension model rats (MCT-PAH); experiment: Monocrotaline-induced pulmonary hypertension model rats, aerosol inhalation treatment; assay type: in vivo, SD rats; conditions: inh, 28 days
Experimental: A pulmonary hypertension animal model of SD rats was established by subcutaneous injection of monocrotaline (MCT). The compound 1 was administered by aerosol inhalation for treatment. The pulmonary artery hemodynamics and right heart hypertrophy index RVHI of rats were tested to determine whether compound 1 administered by aerosol inhalation has effects of improving monocrotaline-induced pulmonary hypertension.
SD rats (purchased from Shanghai Xipuer-Bikai Experimental Animal Co., Ltd.), male, weighing 180-200 g, were bred in an artificially controlled animal room with each 12 hours of light and darkness at a temperature of 20-25° C. and relative humidity of 50-60%, and allowed ad libitum to food and water. The rats were randomly divided into groups according to the experimental requirements, and kept separately in cages, with 3 to 4 rats per cage. All relevant operations of animal experiments are in compliance with the provisions of “Guidelines for the Management and Use of Laboratory Animals” of China.
In the second experiment, the rats were divided into 5 groups, namely the control group, model group, positive control Tyvaso (1.62 μg/kg) group, compound 1 (10 mg/kg) group and compound 1 (30 mg/kg) group. On the first day of the experiment, normal saline was injected subcutaneously into the back of the neck of the rats in the blank control group, and monocrotaline (Chengdu Purifa Biotechnology Co., Ltd.) solution was injected in the other groups at a dosage of 60 mg/kg. Compound 1 and Tyvaso were administered by aerosol inhalation, that is, the compound was firstly dissolved in physiological saline, and then the solution was prepared into an aerosol with a nebulizer to be inhaled into the mouth and nose of rats. The rats in the control group and the model group only inhaled an aerosol made of physiological saline. The rats were continuously administered for 28 days, and the concentration in the parentheses of the group name represents the administered concentration of the compound. Specific groupings can be found in Table 9. After the administration, the pulmonary vascular hemodynamics and RVHI were determined in the same way as the experiment method in Example 1.

[3] = after administration (6 h M ± SD), n = 8
[4] = before administration, M ± SD, n = 8

Structure (SMILES): CCc1cccc(C(O)CO)c1 (stereo not drawn) [Compound 1, 1-(3-ethylphenyl)-1,2-ethylene glycol]
- time after administration of maximum antihypertensive effects [1]: 3 h
- SHR heart rate, time after administration 0 h ([1]; 0 h, N = 8): 356 ± 46.4 beat/min
- Heart rate Difference before and after administration, 1 h ([1]; 1 h): −9 beat/min
- SBP Difference before and after administration, 1 h ([1]; 1 h): 16 mmHg
- SHR heart rate, time after administration 1 h ([1]; 1 h, N = 8): 348 ± 39.3 beat/min
- SHR blood pressure (SBP), time after administration 1 h ([1]; 1 h, n = 8): 176 ± 9.55 mmHg
- Heart rate Difference before and after administration, 2 h ([1]; 2 h): 23 beat/min
- SBP Difference before and after administration, 2 h ([1]; 2 h): 20 mmHg
- SHR heart rate, time after administration 2 h ([1]; 2 h, N = 8): 380 ± 34.1 beat/min
- SHR blood pressure (SBP), time after administration 2 h ([1]; 2 h, n = 8): 172 ± 7.36 mmHg
- Heart rate Difference before and after administration, 3 h ([1]; 3 h): 28 beat/min
- SBP Difference before and after administration, 3 h ([1]; 3 h): 23 mmHg
- SHR heart rate, time after administration 3 h ([1]; 3 h, N = 8): 385 ± 31.5 beat/min
- SHR blood pressure (SBP), time after administration 3 h ([1]; 3 h, n = 8): 169 ± 4.07 mmHg
- Heart rate Difference before and after administration, 4 h ([1]; 4 h): 28 beat/min
- SBP Difference before and after administration, 4 h ([1]; 4 h): 19 mmHg
- SHR heart rate, time after administration 4 h ([1]; 4 h, N = 8): 385 ± 30.4 beat/min
- SHR blood pressure (SBP), time after administration 4 h ([1]; 4 h, n = 8): 173 ± 7.15 mmHg
- Heart rate Difference before and after administration, 5 h ([1]; 5 h): 16 beat/min
- SBP Difference before and after administration, 5 h ([1]; 5 h): 17 mmHg
- SHR heart rate, time after administration 5 h ([1]; 5 h, N = 8): 372 ± 28.5 beat/min
- SHR blood pressure (SBP), time after administration 5 h ([1]; 5 h, n = 8): 175 ± 5.61 mmHg
- Heart rate Difference before and after administration, 6 h ([1]; 6 h): 17 beat/min
- SBP Difference before and after administration, 6 h ([1]; 6 h): 11 mmHg
- SHR heart rate, time after administration 6 h ([1]; 6 h, N = 8): 373 ± 31.3 beat/min
- SHR blood pressure (SBP), time after administration 6 h ([1]; 6 h, n = 8): 180 ± 6.66 mmHg
- Blood pressure (SBP, mmHg) After administration [1, 3]: 174 ± 4.01 mmHg
- Heart rate (beat/min) After administration [1, 3]: 368 ± 25.5 beat/min
- Heart rate Difference (beat/min) ([1]; after administration minus baseline (6 h)): 12 beat/min
- Blood pressure Difference mmHg ([1]; baseline minus after administration (6 h)): 18 mmHg
- Blood pressure (SBP, mmHg) Baseline [1, 4]: 192 ± 7.98 mmHg
- Heart rate (beat/min) Baseline [1, 4]: 356 ± 46.4 beat/min
- 2 × MT/ED ([2]; 10 mg/kg): 0.335 ± 0.034
- RVHI ([2]; 10 mg/kg): 0.235 ± 0.026
- RVSP ([2]; 10 mg/kg): 35.92 ± 3.74 mmHg
- mPAP ([2]; 10 mg/kg): 11.46 ± 2.48 mmHg
- RVHI ([2]; 10 mg/kg, listed as compound 1, 10 mg/kg): 0.235±0.026
- 2 × MT/ED ([2]; 30 mg/kg): 0.319 ± 0.035
- RVHI ([2]; 30 mg/kg): 0.204 ± 0.035
- RVSP ([2]; 30 mg/kg): 31.18 ± 4.62 mmHg
- mPAP ([2]; 30 mg/kg): 8.06 ± 2.59 mmHg
- RVHI ([2]; 30 mg/kg, listed as compound 1, 30 mg/kg): 0.204±0.035
